According to article PMC9728307 (Journal of Microbiology and Biotechnology, 2020):
Structures can show the parent of a compound that is named as a salt. Where two headings read alike, the source gives them in different places. *1 amine or outer side, *2 acyl side, *3 side chain or, on linkers, in order; H or OH if unused. Where a SMILES comes first, the peptide text is derived from it. Bridges are numbered along the chain shown (N, C = ends). [ ]: non-standard residue; d: D form. The star is where a group is joined. hTyr(3S-OH,4S-OH,3'-OSO3H) = N[C@H](C(=O)O)[C@H](O)[C@@H](O)c1ccc(O)c(OS(=O)(=O)O)c1; Orn(4R-OH,5R-OH) = O=C([C@H](C[C@@H](O)[C@@H](O)N[*:3])N[*:1])[*:2]; Pro(3S-OH,4S-Me) = C[C@H]1CN[C@H](C(=O)O)[C@H]1O; X1 = CCCCCOc1ccc(-c2cc(-c3ccc(C(=O)*)cc3)no2)cc1; Gln(3R-OH) = NC(=O)C[C@@H](O)[C@H](N)C(=O)O; Hyp = O=C(O)[C@@H]1C[C@@H](O)CN1

What was measured:
[1] = in vitro; conditions: African green monkey, CC50 cell toxicity
[2] = test system: SARS-CoV-2; assay: microbe, parasite or virus in culture; type: cell-based; conditions: for Selectivity Index (SI): CC50/IC50
[3] = test system: Vero cells; conditions: read-out: CC50 cell toxicity, MTS, no virus, compounds from secondary screening
[4] = test system: SARS-CoV-2; assay: Viral RNA by real-time RT-PCR with primer sets specific to N gene; type: cell-based; conditions: virus-infected cells treated with drug
Protocol: Bromhexine hydrochloride is an inhibitor of TMPRSS2, a cofactor of SARS-CoV-2 entry, and one group reported that the drug was effective on COVID-19 patients in a clinical trial. To further investigate whether bromhexine hydrochloride could inhibit SARS-CoV-2 replication, viral RNA was measured by real-time RT-PCR using primer sets specific to N gene of SARS-CoV-2.
Fig. 4 Suppression of SARS-CoV-2 replication by bromhexine hydrochloride. Cellular RNAs were isolated from cells infected by SARS-COV-2 and treated with bromhexine hydrochloride. The level of viral RNA was measured by real-time RT-PCR using primer sets specific to N gene of SARS-CoV-2.

[5] = test system: SARS-CoV-2; type: cell-based; conditions: Vero cells, 20 μM, MOI 0.5, three days after infection, microscopic observation
[6] = Vero cells, MTS, no virus, compounds from primary screening
[7] = compounds from primary screening
[8] = Severe acute respiratory syndrome coronavirus 2, Vero, 24 h, read-out: IC50 antiviral activity
[9] = compounds from secondary screening
[10] = Severe acute respiratory syndrome coronavirus 2, Vero, 24 h, Vero cells, MOI 2, 24 h post-infection, compounds from secondary screening, 0.08–50 μM, read-out: IC50 antiviral activity
[11] = Severe acute respiratory syndrome coronavirus 2, Vero, 24 h, Vero cells, MOI 2, 24 h post-infection, compounds from primary screening, 100 μM to 0.16 μM, read-out: IC50 antiviral activity
[12] = Vero cells, MTS, no virus, compounds from secondary screening
[13] = Vero cells, MOI 2, 24 h post-infection, compounds from secondary screening, 0.08–50 μM, read-out: IC50 antiviral activity

Structure (SMILES) | CC50 at 24 h [1, 6] [µM] | Selectivity Index (SI) [2, 7] | Selectivity Index (SI) [2, 9] | IC50 [2, 10] [µM] | CC50 at 24 h [1, 12] [µM] | other results
CC[C@@H](C(=O)[C@@H](C)[C@@H](O)[C@H](C)[C@@H]1O[C@@H]([C@@H](CC)C(=O)O)CC[C@@H]1C)[C@H]1O[C@]2(C=C[C@@H](O)[C@]3(CC[C@@](C)([C@H]4CC[C@](O)(CC)[C@H](C)O4)O3)O2)[C@H](C)C[C@@H]1C [Salinomycin] | 56.3 | 97.1 |  |  |  | IC50 [2, 8]: 0.58 µM
CCCCOc1cc(C(=O)NCCN(CC)CC)c2ccccc2n1 [Dibucaine hydrochloride] |  |  | >2.3 | 21.6 |  | CC50 at 24 h [1]: > 50 µM
Cc1ccc(-c2cc(C(F)(F)F)nn2-c2ccc(S(N)(=O)=O)cc2)cc1 [Celecoxib] | 74.8 | 4.3 |  |  |  | IC50 [2, 11]: 17.5 µM
CCN(CC)Cc1cc(Nc2ccnc3cc(Cl)ccc23)ccc1O [Amodiaquine] | > 100 | >17.2 | >10.9 | 4.6 | > 50 | IC50 [2, 11]: 5.8 µM
CN1CCC(OC(c2ccccc2)c2ccccc2)CC1 [Diphenylpyraline hydrochloride] |  |  | >1.2 | 42.4 | > 50 | 
COC(=O)[C@H]1[C@H]2C[C@@H]3c4[nH]c5cc(OC)ccc5c4CCN3C[C@H]2C[C@@H](OC(=O)c2cc(OC)c(OC)c(OC)c2)[C@@H]1OC [Reserpine] |  |  | >1.7 | 29.2 | > 50 | 
CN(C)C(=O)C(CCN1CCC(O)(c2ccc(Cl)cc2)CC1)(c1ccccc1)c1ccccc1 [Loperamide hydrochloride] |  |  |  |  | > 50 | 
Cc1cccc(CN2CCN(C(c3ccccc3)c3ccc(Cl)cc3)CC2)c1 (centres unmarked) [Meclizine] | > 100 | >17.9 |  |  |  | IC50 [2, 11]: 5.6 µM
Cc1ccc(NC(=O)c2ccc(CN3CCN(C)CC3)cc2)cc1Nc1nccc(-c2cccnc2)n1 [Imatinib] |  |  |  |  | > 50 | 
CN1CCN(CCCN2c3ccccc3Sc3ccc(S(=O)(=O)N(C)C)cc32)CC1 [Thioproperazine dimesylate] |  |  |  |  |  | IC50 [2, 13]: 13.4 µM; CC50 [3]: 41 µM
O=C(O)Cc1cc(I)c(Oc2ccc(O)c(I)c2)c(I)c1 [Tiratricol] |  |  | >10.9 |  | > 50 | IC50 [2, 8]: 4.6 µM
CCOC(=O)C1=C[C@]2(CC)CCCN3CCc4c(n1c1ccccc41)[C@@H]32 [Vinpocetine] |  |  | >5.8 | 8.6 | > 50 | 
O=C(CCCl)NCc1ccccc1 [Beclamide] | > 100 | >1.4 |  |  |  | IC50 [2, 8]: 72 µM
CC(C)(C)c1ccc(CN2CCN(C(c3ccccc3)c3ccc(Cl)cc3)CC2)cc1 (centres unmarked) [Buclizine] | > 100 | >5.1 |  |  |  | IC50 [2, 11]: 19.6 µM
CCN(CC)C(C)CN1c2ccccc2Sc2ccccc21 (centres unmarked) [Ethopropazine hydrochloride] |  |  | >2.5 | 20.3 | > 50 | 
CN1CC2c3ccccc3Oc3ccc(Cl)cc3C2C1 (centres unmarked) [Asenapine] |  |  |  |  | > 50 | 
Fc1ccc(C(c2ccc(F)cc2)N2CCN(C/C=C/c3ccccc3)CC2)cc1 [Flunarizine] | > 100 |  |  |  |  | 
CN(Cc1cc(Br)cc(Br)c1N)C1CCCCC1 [Bromhexine hydrochloride] |  |  | >3.5 |  | > 50 | Level of intracellular viral RNA [4]: effectively reduced the intracellular RNA; IC50 [2, 8]: 14.4 µM
CCCCCOc1ccc(-c2cc(-c3ccc(C(=O)N[C@H]4C[C@@H](O)[C@@H](O)NC(=O)[C@@H]5[C@@H](O)[C@@H](C)CN5C(=O)[C@H]([C@H](O)CC(N)=O)NC(=O)[C@H]([C@H](O)[C@@H](O)c5ccc(O)c(OS(=O)(=O)O)c5)NC(=O)[C@@H]5C[C@@H](O)CN5C(=O)[C@H]([C@@H](C)O)NC4=O)cc3)no2)cc1 [Micafungin] (X1-[Orn(4R-OH,5R-OH)]T[Hyp][hTyr(3S-OH,4S-OH,3'-OSO3H)][Gln(3R-OH)][Pro(3S-OH,4S-Me)]; lactam 1-C) | > 100 | >18.1 | >3.9 |  | > 50 | IC50 ([2]; Severe acute respiratory syndrome coronavirus 2, Vero, 24 h, read-out: IC50 antiviral activity, Vero cells, MOI 2, 24 h post-infection, compounds from primary screening, 100 μM to 0.16 μM): 5.5 µM; IC50 ([2]; Severe acute respiratory syndrome coronavirus 2, Vero, 24 h, read-out: IC50 antiviral activity, Vero cells, MOI 2, 24 h post-infection, compounds from secondary screening, 0.08–50 μM): 12.9 µM
C=C[C@@]1(C)CC(=O)[C@]2(O)[C@@]3(C)[C@@H](O)CCC(C)(C)[C@@H]3[C@H](OC(=O)CCN(C)C)[C@H](OC(C)=O)[C@@]2(C)O1 [NKH 477] |  |  |  |  |  | IC50 [2, 13]: 12.7 µM; CC50 [3]: > 50 µM
CCCCc1nc(Cl)c(CO)n1Cc1ccc(-c2ccccc2-c2nn[nH]n2)cc1 [Losartan] | > 100 | >1.4 |  |  |  | IC50 [2, 11]: 72 µM
Cc1ccc(NC(=O)c2ccc(CN3CCN(C)CC3)cc2)cc1Nc1nc(-c2cccnc2)cs1 [Masitinib] |  |  | 3.2 |  | 47.1 | IC50 [2, 8]: 14.9 µM
CC[C@H]1CN2CC[C@H]1C[C@@H]2[C@@H](O)c1ccnc2ccc(OC)cc12 [hydroquinidine] |  |  | >2.1 | 23.8 | > 50 | 
CCC(CC)COC(=O)[C@H](C)N[P@](=O)(OC[C@H]1O[C@@](C#N)(c2ccc3c(N)ncnn23)[C@H](O)[C@@H]1O)Oc1ccccc1 [Remdesivir] | > 100 | >20 | >10 | 5 | > 50 | IC50 ([2]; Severe acute respiratory syndrome coronavirus 2, Vero, 24 h, Vero cells, 2 MOI, 24 h post-infection, calibration of the assay with reference compound (Fig. 1), read-out: IC50 antiviral activity): 6 µM; IC50 [2, 11]: 5 µM; Inhibition of viral CPE [5]: complete absence of CPE
COc1ccc(CN2CCN(C(c3ccc(F)cc3)c3ccc(F)cc3)CC2)c(OC)c1OC [Lomerizine] |  | >7.8 |  |  |  | CC50 at 24 h [1]: > 100 µM; IC50 [2, 11]: 12.8 µM
CC(C)N(CCCCOCC(=O)NS(C)(=O)=O)c1cnc(-c2ccccc2)c(-c2ccccc2)n1 [Selexipag] |  |  | >5.9 | 8.5 |  | CC50 at 24 h [1]: > 50 µM
CC(CN1c2ccccc2Sc2ccccc21)N(C)C (centres unmarked) [Promethazine hydrochloride] |  |  | >2.6 | 19.1 | > 50 | 
CC1=NN(c2ccc(C)c(C)c2)C(=O)/C1=N\Nc1cccc(-c2cccc(C(=O)O)c2)c1O [Eltrombopag] |  |  | 21.9 | 2 | 43.8 | 
C=C[C@H]1C[N@@]2CC[C@H]1C[C@@H]2[C@@H](O)c1ccnc2ccc(OC)cc12 [Quinidine gluconate] |  |  | >2.1 | 24.2 | > 50 | 
CCCS(=O)(=O)Nc1ccc(F)c(C(=O)c2c[nH]c3ncc(-c4ccc(Cl)cc4)cc23)c1F [Vemurafenib (PLX4032), Vemurafenib] |  |  | >7.1 | 7 |  | CC50 at 24 h [1]: > 50 µM
